In series [1] the test system is PDGF-responsive neural precursors (PRPs) from dissociated E14 MGE/LGE. Briefly: Primary neurosphere generation from dissociated E14 ganglionic eminences. Format: cell-based, mouse. The procedure:
Cell culture. The culture medium (MHM) was composed of DMEM/F-12 (1:1) including HEPES buffer (5 mM), glucose (0.6%), sodium bicarbonate (3 mM), glutamine (2 mM), insulin (25 μg/ml), transferrin (100 μg/ml), progesterone (20 nM), putrescine (10 μM), and sodium selenite (30 nM; all from Sigma, St. Louis, Mo., except glutamine from Invitrogen, Carlsbad, Calif.). The lateral, medial, or both ganglionic eminences (LGE, MGE or both) were removed from Embryonic Day 14 (E14) mouse embryos and mechanically dissociated with a fire-polished Pasteur pipette in MHM. Cells were plated at a density of […] unless otherwise indicated.
For neurosphere generation, PDGF-AA (100 ng/ml; Peprotech, Rocky Hill, N.J.), PDGF-BB (100 ng/ml; Peprotech), EGF (20 ng/ml; Peprotech), FGF2 (20 ng/ml; R&D [Minneapolis, Minn.])+heparan sulfate (2 μg/ml; HS; R&D), SHH (2 ug/ml; R&D), cyclopamine (5 μM; Toronto Research Chemicals, North York, Ontario), and/or DMSO (0.1%; carrier) was added to the MHM. MHM used to generate neurospheres also contained 2% B27 (Invitrogen).
[…] is one of the earliest markers of OLPs, and signaling by PDGF-AA is required for the generation of most oligodendrocytes (Fruttiger et al., Development 126:457 (1999)). Increasing concentrations of PDGF-AA were used to determine whether stimulation of dissociated E14 medial and lateral ganglionic eminences. (MGE and LGE, respectively) results in generation of neurospheres. The neurosphere assay was used because manipulation of primary cells is minimal compared to the immunopanning procedures used to isolate O-2A progenitors.
The effect of brain-derived neurotrophic factor (BDNF), neurotrophin-3 (NT-3), and nerve growth factor (NGF) on PRPs was determined. Cells were cultured as previously reported (Chojnacki et al., J Neurosci 24(48):10888 2004) in the presence of various combinations of PDGF, brain-derived neurotrophic factor (BDNF), NT-3, nerve growth factor (NGF), and the effects on neurosphere generation characterized. MHM is the defined medium used in cultures without growth factor.

Series [2] relates to NSC. Put plainly: FGF2-induced NSC proliferation. Format: cell-based. Conditions: 1 μM SU5402.
Series [3] concerns PDGF-generated neurospheres. Briefly: Differentiation of primary PDGF-AA-generated neurospheres, immunocytochemistry. Format: cell-based, mouse.
For series [4], the system named is PRPs (single primary neurospheres). Briefly: Self-renewal by single sphere dissociation (secondary neurospheres). The following applies: for secondary neurospheres per single primary PDGF-generated neurosphere: passaged into the named factor(s). Format: cell-based. The procedure:
Self-renewal capacity was examined by single sphere dissociation. Briefly, single 6 DIV neurospheres of equivalent size that were generated in the presence of EGF, PDGF-AA, or PDGF-AA and SHH were transferred into 96 well plates and mechanically dissociated. Dissociates were cultured in MHM supplemented with EGF, FGF2 (includes 2 μg/ml HS), FGF2 and SHH, PDGF-AA, PDGF-AA and SHH, PDGF-AA and FGF2, PDGF-AA and FGF2 and SHH, PDGF-AA and DMSO (0.1%), PDGF-AA and SHH, or PDGF-AA and FGF2 and cyclopamine. The number of secondary neurospheres generated was counted after 9 DIV.

The test system of series [5] is dissociated E14 MGEs. Put plainly: Clonality test: GFP and CD1 E14 MGE cells co-cultured 1:1 in PDGF-AA. Format: cell-based, mouse. The following applies: 100 ng/ml PDGF-AA, 20,000 cells/ml, GFP:CD1 1:1. The source says: PDGF is also known to have chemotaxic effects on cortical NSCs (Forsberg-Nilsson et al., J Neurosci Res 53:521 (1998)), and thus it was possible that neurospheres generated under PDGF stimulation resulted from the directed migration of NSCs along the culture dish into clumps that resembled clonally-derived neurospheres. This possibility was studied, as previously described (Represa et al., Eur J Neurosci 14:452 (2001)), by culturing dissociated E14 MGEs from CD1 and TgN(GFPU)5Nagy (ubiquitous green fluorescent protein [GFP]-expressing) mice together, 1:1, at 20,000 cells/ml, and in the presence of 100 ng/ml of PDGF-AA. If cell clumping generates the majority of the neurospheres, then most neurospheres should contain both GFP- and non-GFP-expressing cells. However, 95±11% of the neurospheres were not chimeric for GFP expression (p<0.01; Tukey HSD; n=3) (FIGS. 1C-D), and there was no difference in the number of GFP- or non-GFP-expressing neurospheres produced (p>0.65; Tukey HSD; n=3) (FIG. 1D).

In series [6] the test system is PRPs. Briefly: GFP-expressing PDGF neurosphere dissociates plated on EGF-generated feeder layer. Format: cell-based, mouse. The following applies: PDGF with EGF feeder layer. The source says:
To determine if extrinsic factors could promote self-renewal of PRPs, individual, 7 DIV, GFP-expressing, PDGF-generated neurospheres were isolated, dissociated in the presence of PDGF-AA, and differentiated on coverslips that had been plated 2 days earlier with or without 0.2×10^6 cells/ml of EGF-generated cells from dissociated primary EGF neurospheres. EGF-generated feeder cells had been allowed to differentiate for 2 days in the presence of 1% FBS. Plates were rinsed 3× with MHM prior to the addition of GFP-expressing, PDGF-generated dissociates. Numbers of adherent clones and cells per clone were assessed by GFP expression. All images were captured with a Photometrics Coolsnap digital camera (Tuscon, Ariz.) mounted on a Leica Microsystems DMIL inverted fluorescence microscope with Coolsnap V1.2.0 software.
However, these studies employed a defined culture media in which some factors required for self-renewal may be missing. To further study PRP self-renewal, primary PDGF neurospheres from the E14 MGEs of TgN(GFPU)5Nagy mice were grown for 7 DIV, individual neurospheres dissociated and transferred from single neurospheres onto poly-L-omithine coated coverslips that had been plated with or without 200,000 primary 7 DIV EGF-generated progeny 2 days earlier.

The mark [7] stands for this setting: 6 DIV neurospheres differentiated 3 DIV.

In the case of `Cc1c[nH]c(/C=C2\C(=O)Nc3ccccc32)c1CCC(=O)O` [SU5402, reference compound], the “primary PDGF neurosphere formation” value in series [1] (1 μM SU5402) is reported as “unaffected”. In addition, the “block of FGF2-induced NSC proliferation” value in series [2] is 90%.

For the molecule `N[C@@H](Cc1cc(I)c(Oc2ccc(O)c(I)c2)c(I)c1)C(=O)O` [T3, triiodothyronine], the “increase in differentiation of oligodendrocytes (O4)” value in series [3] (20 ng/ml T3, 2 DIV, vs 1% FBS) was 5 fold. Moreover, in series [3] (2 DIV), the MBP-only clones result is given as “increased the number of MBP-only clones”. Also, the “MBP-expressing cells produced per clone” value in series [3] (2 DIV, vs 1% FBS, BMP-2, and T3 and BMP-2) is recorded as “significantly increased the number of MBP-expressing cells produced per clone”. Moreover, in series [3] (setting [7]), the “GFAP-immunoreactive astrocytes per neurosphere” value is “no astrocytes” and the “MBP-immunoreactive oligodendrocytes per neurosphere” value stood at 3.9±0.4.

On to `CC1=C2C[C@H]3[C@@H](CC=C4C[C@@H](O)CC[C@@]43C)[C@@H]2CC[C@]12O[C@@H]1C[C@H](C)CN[C@H]1[C@H]2C` [cyclopamine, reference compound], for which the neurosphere size entry in series [1] (5 μM cyclopamine with 100 ng/ml PDGF-AA) was “smaller”. Further, the “reduction in number of PDGF-AA-generated neurospheres” value in series [1] (5 μM cyclopamine with 100 ng/ml PDGF-AA, MGE 10,000 cells/ml, vs PDGF-AA+DMSO) is 5 fold. Also, the non-specific toxic effect entry in series [1] (5 μM cyclopamine, phase-bright differentiating cells present) is reported as “likely not a result of a non-specific toxic effect”. The “secondary neurospheres per primary PDGF-generated neurosphere” value in series [4] (cyclopamine added to PDGF and FGF2) worked out at 3±1.

“EGF: epidermal growth factor, 20 ng/ml; Peprotech (NSDSECPLSHDGYCLHDGVCMYIEALDKYACNCVVGYIGERCQYRDLKWWELR; Epidermal growth factor; UniProt P01133 971-1023, looked up)”: in series [4], the “secondary neurospheres per single primary PDGF-generated neurosphere” value is reported as 3±1.

For the molecule “FGF2: fibroblast growth factor 2, 20 ng/ml, with heparan sulfate 2 μg/ml”, in series [4], the “secondary neurospheres per single primary PDGF-generated neurosphere” value is given as 3±1. For the same molecule, the “secondary neurospheres / self-renewal compared with passage in PDGF” value in series [4] (primary PDGF-generated neurospheres passaged into the named factor(s)) is recorded as “No increase in self-renewal”.

For “PDGF-AA: platelet-derived growth factor AA, 100 ng/ml; Peprotech”, the neurospheres produced in series [1] (100 ng/ml PDGF-AA, dissociated E14 MGE and LGE, n=3) is 12±1 neurospheres per 10,000 plated cells. For the same molecule, the “number of primary neurospheres generated” value in series [1] (dissociated MGEs, SHH 2 μg/ml, n=8) amounted to 60±9. In series [1] (increasing concentrations of PDGF-AA), the “neurosphere production versus concentration” value is given as “induced neurosphere production in a dose-dependent manner”. Further, the “neurospheres not chimeric for GFP expression” value in series [5] is recorded as 95±11%. In addition, in series [4] (passaged into PDGF-AA), the “secondary neurospheres per single primary EGF-generated neurosphere” value came out at 26±5. For the same molecule, the “secondary neurospheres per single primary PDGF-generated neurosphere” value in series [4] was found to be 1±1. For the same molecule, the “adherent GFP-labeled clones” value in series [6] is “many clones of GFP-labeled cells that contained greater than 10 cells”.

The values are drawn from patent US7629169B2, “Methods for the production of platelet-derived growth factor-responsive neural precursor cells” (Stem Cell Therapeutics Corp., priority 2004, dated 2009).
